Laboratory results taken from PMC8303187, “Anti-Inflammatory Effects of Compounds from Cudrania tricuspidata in HaCaT Human Keratinocytes” (International Journal of Molecular Sciences, 2021).
Like-named read-outs stand apart in the source and are kept apart here.

Experiments:
[1] = test system: IL-6 production in TNF-α + IFN-γ-treated HaCaT cells; test: IL-6 production in TNF-α + IFN-γ-treated HaCaT cells (ELISA); assay type: cell-based, human; conditions: for IL-6 production: HaCaT cells pre-treated 3 h, then TNF-α + IFN-γ 24 h, result in words; for IC50: HaCaT cells pre-incubated with compound 3 h, then TNF-α + IFN-γ (20 ng/mL) 24 h, ELISA
Source text: The skin consists of two basic layers: the epidermis and dermis. The epidermis is mainly composed of keratinocytes. Pro-inflammatory cytokines are known to play an important role in the immune response in keratinocytes. Previous studies have reported the roles of TNF-α and IFN-γ in inducing NF-κB activation, which upregulates the production of IL-6 and IL-8 [25]. […] Accordingly, the effect of the 16 compounds from C. tricuspidata on IL-6 production in TNF-α + IFN-γ-treated HaCaT cells were determined. Briefly, HaCaT cells were pre-incubated with different concentrations of the 16 compounds for 3 h, and then stimulated with TNF-α + IFN-γ for 24 h.
(§1) The cytokines and chemokines in IL-6, IL-8, CCL17 (TARC), and CCL5 (RANTES) HaCaT cells were detected using an enzyme-linked immunosorbent assay. The levels of these cytokines and chemokines were measured using commercial ELISA kits (BioLegend, San Diego, CA, USA), according to the manufacturer’s instructions.
Figure S2. Effects of the 16 compounds from C. tricuspidata on IL-6 production in TNF-α+IFN-γ-treated HaCaT cells (A, B, and C). Cells were pre-treated with the indicated concentrations of the 16 compounds from C. tricuspidata for 3 h and then stimulated with TNF-α+IFN-γ (20 ng/mL) for 24 h. IL-6 levels were determined as described in the Materials and Methods section. The results are presented as the mean ± standard deviation of three experiments. *p < 0.05, **p < 0.01, and ***p < 0.001 compared with TNF-

[2] = test system: IL-8 production in TNF-α + IFN-γ-treated HaCaT cells; test: IL-8 production in TNF-α + IFN-γ-treated HaCaT cells (ELISA); assay type: cell-based, human; conditions: for IL-8 production: HaCaT cells pre-treated 3 h, then TNF-α + IFN-γ 24 h, result in words; for IC50: HaCaT cells pre-incubated with compound 3 h, then TNF-α + IFN-γ (20 ng/mL) 24 h, ELISA
Experimental: Next, the effect of the 16 compounds from C. tricuspidata on IL-8 production in HaCaT cells were determined. Briefly, HaCaT cells were pre-incubated with different concentrations of the 16 compounds for 3 h. Thereafter, the cells were subjected to TNF-α + IFN-γ stimulation for 24 h. […] Compound 2, with its flavanone skeletons, has been studied for its cyclooxygenase and tyrosinase inhibitory effects. In a previous study, compound 2 altered the anti-neuroinflammatory response in microglia. Compound 6, a prenylated flavanone, has been reported to have apoptotic effects on A375.S2 melanoma cells and to lead to the induction of apoptotic cell death in KM12, Caco-2, HT29, HCC2998, HCT116, and SW48 cell lines. […] This is the first report on the biological action of compounds 2, 6, 12, 13, 4, and 14 on the inhibitory effects of skin inflammatory factors in skin HaCaT cells. Therefore, further mechanism studies of these six compounds in HaCaT cells were conducted.
as §1
Figure S3. Effects of the 16 compounds from C. tricuspidata on IL-8 (A, B, and C) production in TNF-α+IFN-γ-treated HaCaT cells. The cells were pre-treated with the indicated concentrations of the C. tricuspidata compounds for 3 h, and then stimulated with TNF-α+IFN-γ (20 ng/mL) for 24 h. […] levels were determined as described in the Materials and Methods section. Data are expressed as the mean ± standard deviation of three experiments. *p < 0.05, **p < 0.01, and ***p < 0.001 compared with TNF- […]
(1 picture or pasted object on this page, not shown here)

HaCaT cells [3] = test: Cell Counting Kit (CCK)-8 cell viability / cytotoxicity assay; conditions: CCK-8 assay, 24 h, concentration values that did not result in cytotoxicity
Experimental: (§6) The cytotoxicity of the 16 compounds was evaluated using a Cell Counting Kit (CCK)-8 assay on HaCaT cells.
(§7) To determine the viability of HaCaT cells, these were maintained at 2 × 10^4 cells/well, treated with the test compounds in the presence or absence of glutamate (5 mM), and cultured for 24 h. Subsequently, a CCK8 assay (Dojindo Laboratories, Kumamoto, Japan) was performed and the cells were incubated for 1 h. The absorbance was then measured at 450 nm.

HaCaT cells [4] = test system: HaCaT cells
Experimental: as §6, §7

[5] = test system: NF-κB p65 translocation to the nucleus in HaCaT cells; test: NF-κB p65 translocation to the nucleus in TNF-α + IFN-γ-treated HaCaT cells (Western blotting); assay type: cell-based, human; conditions: HaCaT cells pretreated 3 h, then TNF-α + IFN-γ (20 ng/mL) 10 min; Western blot
Source text: (§2) The activation of NF-κB by TNF-α and/or IFN-γ results from high levels of IκB phosphorylation and the degradation of IκB in keratinocytes. NF-κB–mediated inflammation is a significant component of innate immunity and seems to be a final common pathway for the aggravation of the inflammatory response to stimuli in immune diseases of the skin [56]. To determine the potential mechanisms of the inhibition of TNF-α + IFN-γ-induced pro-inflammatory enzyme and the mediator levels by the six compounds from C. tricuspidata, their effects on the phosphorylation and degradation of cytoplasmic IκBα and on p65 translocation to the nucleus were investigated. […] In addition, compounds 13, 4, and 14 inhibited the phosphorylation of IκBα (Figure 5C,D). When HaCaT cells were exposed to TNF-α + IFN-γ, NF-κB p65 translocated from the cytoplasm to the nucleus.
(§3) Figure 5 Effects of the six compounds from C. tricuspidata on the degradation of IκB-α (A,B), the phosphorylation of IκBα (C,D), and the translocation of NF-κB p65 to the nucleus (E,F) in HaCaT cells. Cells were pretreated with the six compounds from C. tricuspidata at the indicated concentrations for 3 h and stimulated with TNF-α + IFN-γ (20 ng/mL) for 10 min. IκBα, p-IκBα, and NF-κB p65 were analyzed using Western blotting, as described in the Materials and Methods section. Representative blots from four independent experiments are presented. The immunoblots were quantified using ImageJ software. The band intensity was normalized to that of actin or anti-proliferating cell nuclear antigen (PCNA). * p < 0.05, ** p < 0.01, *** p < 0.001 compared with TNF-α + IFN-γ only.
(§4) Cells were harvested and pelleted via centrifugation at 200× g for 3 min, washed with PBS, and lysed in 20 mM Tris-HCl buffer (pH 7.4) containing a protease inhibitor mixture (0.1 mM phenylmethanesulfonyl fluoride, 5 mg/mL aprotinin, 5 mg/mL pepstatin A, and 1 mg/mL chymostatin). The protein concentration was determined using a protein assay dye reagent concentrate (#5000006; Bio-Rad Laboratories, Hercules, CA, USA). A total of 30 micrograms of protein from each sample was resolved using 7.5% and 12% sodium dodecyl sulfate-polyacrylamide gel electrophoresis. Thereafter, the proteins were electrophoretically transferred onto Hybond enhanced chemiluminescence (ECL) nitrocellulose membranes (Bio-Rad Laboratories). The membranes were blocked with 5% skimmed milk, and sequentially incubated with the relevant primary antibody and horseradish peroxidase-conjugated secondary antibody, prior to ECL detection (Pierce Biotechnology, Rockford, IL, USA).
(§5) HaCaT cells were homogenized in PER-Mammalian Protein Extraction Buffer (1:20, w:v) (Pierce Biotechnology, Rockford, IL, USA) containing freshly added protease inhibitor cocktail I (EMD Biosciences, San Diego, CA, USA) and 1 mM phenylmethanesulfonyl fluoride. The cytosolic fractions were prepared using centrifugation at 16,000× g for 5 min at 4 °C, while the nuclear and cytoplasmic cell extracts were prepared using NE-PER nuclear and cytoplasmic extraction reagents, respectively (Pierce Biotechnology, Rockford, IL, USA).

[6] = test system: IκBα degradation in HaCaT cells; test: Degradation of cytoplasmic IκBα in TNF-α + IFN-γ-treated HaCaT cells (Western blotting); assay type: cell-based, human; conditions: HaCaT cells pretreated 3 h, then TNF-α + IFN-γ (20 ng/mL) 10 min; Western blot
Source text: as §2, §3, §4, §5

Molecule | IL-6 production [1] | IC50 ([1]; Homo sapiens) [µM] | IL-8 production [2] | IC50 ([2]; Homo sapiens) [µM] | Cytotoxicity (HaCaT cells [3]) [µM] | Cytotoxicity (HaCaT cells [4]) [µM] | IC50 [1] [µM] | IC50 [2] [µM] | NF-κB p65 translocation to the nucleus [5] | degradation of IκBα in the cytoplasm [6]
C=CC(C)(C)c1c(OC)c(CC=C(C)C)c2oc3cc(O)c(O)cc3c(=O)c2c1O [Compound 15, cudracuspixanthone A] | significantly decreased | > 2 | decreased | 1.54 ± 0.53 | >2 | – | – | – | – | –
CC(C)=CCc1c(O)cc2c(c1O)C(=O)C[C@@H](c1cc3c(cc1O)OC(C)(C)C=C3)O2 [Compound 5, cudraflavanone A] | – | > 40 | decreased | > 40 | >40 | – | – | – | – | –
C=CC(C)(C)c1c(O)cc(O)c2c(=O)c3c(CC=C(C)C)c(O)c(O)cc3oc12 [Compound 11, cudratricusxanthone A] | – | > 5 | – | > 5 | >5 | – | – | – | – | –
C=CC(C)(C)c1c(O)cc2oc3c(CC=C(C)C)c(O)c(O)cc3c(=O)c2c1O [Compound 10, cudraxanthone L] | significantly decreased | > 2 | decreased | > 2 | >2 | – | – | – | – | –
O=C1c2c(O)cc(O)cc2O[C@H](c2ccc(O)cc2)[C@H]1O [Compound 1, dihydrokaempferol] | significantly decreased | > 80 | decreased | > 80 | >80 | – | – | – | – | –
CC(C)=CCc1c(-c2ccc(O)cc2O)oc2c(CC=C(C)C)c(O)cc(O)c2c1=O [Compound 7, kuwanon C] | significantly decreased | 25.8 ± 5.16 | decreased | > 40 | >40 | – | – | – | – | –
cudraxanthone D [Compound 9] | – | – | decreased | – | – | >5 | – | – | – | –
cudraxanthone M [Compound 8] | – | – | decreased | – | >10 | – | > 10 | > 10 | – | –
C=CC(C)(C)c1c(O)c(CC=C(C)C)c2oc3cc(O)c(O)cc3c(=O)c2c1O [Compound 12, macluraxanthone B] | significantly decreased | > 5 | decreased | 7.88 ± 3.09 | >5 | – | – | – | significantly inhibited | inhibit
COc1cc(/C=C/C(=O)CC(=O)/C=C/c2ccc(O)c(OC)c2)ccc1O [curcumin, reference compound] | – | 12 ± 3.13 | – | 10.3 ± 2.2 | – | – | – | – | – | –
C=CC(C)(C)c1c2c(c3oc4cc(O)c(O)cc4c(=O)c3c1O)C=CC(C)(C)O2 [Compound 16, cudratricusxanthone N] | – | > 2 | decreased | > 2 | >2 | – | – | – | – | –
O=C1CC(c2ccc(O)cc2O)Oc2cc(O)cc(O)c21 (stereo not drawn) [Compound 2, steppogenin] | significantly decreased | > 80 | decreased | 62.2 ± 16.5 | >80 | – | – | – | significantly inhibited | –
CC(C)=CCc1cc([C@H]2Oc3cc(O)c(CC=C(C)C)c(O)c3C(=O)C2O)c(O)cc1O (stereo partly drawn) [Compound 3, cudraflavanone D] | significantly decreased | > 10 | decreased | 4.2 ± 1.03 | >10 | – | – | – | – | –
